This is an account of results in patent US9169223B2, “Functionalised antifouling compounds and use thereof” (Agency for Science, Technology and Research, priority 2010, dated 2015).

Values after ≈ are worked out from the molar mass of the structure shown. Some results are limits rather than exact numbers.

The test system of one series is barnacle cyprids. The series is described as follows: Settlement assay with barnacle cyprids. It is filed as in vivo, Amphibalanus amphitrite. On the procedure: Biological assays were conducted with larval barnacles. Barnacles are dominant and tenacious members of marine fouling communities, and often serve as a substrate for less resistant organisms. Therefore, historically they have been used as a model organism for antifouling studies. To determine the biological response of larvae to test compounds, two bioassays were performed: settlement (using settlement stage cyprids), and toxicity (using nauplii).
(§1) Stock solutions of each compound were made at 50 mg/ml. Pure compounds were diluted in DMSO and sonicated. Stock solutions were stored at −20° C. in 4 ml amber screw cap vials until use. For bioassays, a small amount of stock solution was diluted in 1 μm filtered seawater (in a glass scintillation vial). The solution was then sonicated for 10 minutes. To obtain the desired concentration range, serial dilutions of the test solution were made. As control, a serial dilution of the equivalent amounts of DMSO in seawater was used.
Nauplii were cultured as described above, and then reared at 25° C. on an algal mixture of 1:1 v/v of Tetraselmis suecica and Chaetoceros muelleri (approximately density 5×10^5 cells per ml). Under these conditions, nauplii typically metamorphose to cyprids in 5 days. Cyprids were aged at 4° C. for 2 days.
Settlement assays were conducted in 7 ml neutral glass vials (Samco® T103/V1; 34×23 mm diameter). For assays, each solution was made at twice the desired final concentration; 0.5 ml of this solution was transferred to vials. To each vial, cyprids were added by transferring 0.5 ml filtered seawater containing 20-40 aged cyprids. As in toxicity assays: each compound at each concentration was run in triplicate with cyprids from a single batch; two controls (filtered seawater and DMSO) were run along with each assays; and the overall assay was conducted twice, using two different batches of cyprids.
Assays were conducted for 24 hours, after which time the number of settled cyprids, the number of free swimming (unsettled) cyprids, and the number of dead cyprids were counted for each vial. Both metamorphosed, juvenile barnacles and cyprids that had committed to settlement (glued themselves to the vial), but had not yet metamorphosed, were counted as ‘settled’. Data was expressed as percent settlement. […] If ED50 could not be calculated using probit analysis, values were extrapolated based on plotted data.

Series [1] concerns stage II naupliar larvae of the barnacle Amphibalanus amphitrite. Put plainly: Toxicity assay with barnacle nauplii. The format is in vivo. The settings on record: Amphibalanus amphitrite (barnacle), stage II naupliar larvae, in vivo. How it is done: Biological assays were conducted with larval barnacles. Barnacles are dominant and tenacious members of marine fouling communities, and often serve as a substrate for less resistant organisms. Therefore, historically they have been used as a model organism for antifouling studies. To determine the biological response of larvae to test compounds, two bioassays were performed: settlement (using settlement stage cyprids), and toxicity (using nauplii). Procedures followed methods standard in the field, which were first described by Rittschof et al. (1992).
as §1
Toxicity assays employed stage II naupliar larvae of the barnacle Amphibalanus amphitrite (previously Balanus amphitrite: Pitombo, 2004). Assay procedures were modified from Rittschof et al. (1992). Adult A. amphitrite were collected from inter-tidal areas near the Kranji mangrove, Singapore. Larval culture was based on Rittschof et al. (1984). Following collection, nauplii were concentrated for use in bioassays by placing a fiber optic light source at one side of the container, and pipetting from the resulting dense cloud of nauplii.
In order to determine LD50 values for each compound, compounds were tested over a range of concentrations between 0-50 μg/ml. For each assay, each compound at each concentration was tested in triplicate with a single batch of nauplii. The overall assay was conducted twice, using two different batches of nauplii. Two controls were run along with each assay (in triplicate): filtered seawater only, and DMSO at […] (since DMSO was used as a solvent for test compounds, this concentration is equivalent to the concentration of DMSO in the highest test compound concentration).
For assays, approximately 20 nauplii (in 50 μl filtered seawater) were added to 1 ml test solution or control, in a 2 ml glass vial (La Pha Pack® PN 11-14-0544). Assays were run for 22-24 hours at 25-27° C. After this time, living and dead nauplii were counted using a Bogorov tray. Nauplii that were approaching death were scored as dead. Data for all assays was combined and LD50 was calculated (where possible) using a probit analysis (Libermann, 1983). If LD50 could not be calculated using probit analysis, values were extrapolated based on plotted data.

A short description of series [2]: Observation on standing (note in characterisation). It is filed as physicochemical. The settings on record: HRMS consistent with free alcohol. How it is done:
To a round bottomed flask containing DMAP (2 mg) was added a solution of 2-(4-hydroxymethyl)phenyl-1-(piperidin-1-yl)hexanone (30 mg, 0.10 mmol) in dry dichloromethane (2 mL). To the resulting mixture was added dry NEt3 (208 μL, 1.5 mmol) followed by acetic anhydride (100 μL, 1.0 mmol). The resulting mixture was allowed to stir for 3 hours. After this time, the reaction mixture was washed with saturated NaHCO3, water and then brine and the organic phase was dried (Na2SO4) and concentrated under reduced pressure. The title compound was obtained as a colourless oil (20 mg, 60%) following purification by flash column chromatography (50% EtOAc in hexane, Rf=0.7). ^1H NMR (400 MHz, CDCl3) δ 0.86 (t, J=7 Hz, 3H); 1.0-1.2 (2×m, 2H); 1.2-1.5 (multiple signals, 8H); 1.68 (m, 1H); 4.53 (m+s, 4H); 3.33 (m, 1H), 3.39 (m, 1H); 3.49 (m, 1H); 3.60 (m, 1H); 3.70 (t, J=7 Hz, 1H); 5.07 (s, 2H); 7.72 (m, 4H). ^13C NMR (75 MHz, CDCl3) δ14.01, 21.08, 22.72, 24.57, 25.60, 26.20, 30.09, 34.77, 43.20, 46.66, 48.38, 66.07, 128.03, 128.58, 134.24, 141.02, 171.09, 171.17.
To a round bottomed flask containing DMAP (2 mg) was added a solution of 2-(4-hydroxymethyl)phenyl-1-(piperidin-1-yl)hexanone (30 mg, 0.10 mmol) in dry CH2Cl2 (2 mL). To the resulting mixture was added dry NEt3 ([…], 1.5 mmol) followed by acetic anhydride (100 μL, 1.0 mmol). The resulting mixture was allowed to stir for 3 hours. […]

Turning to `CCCCC(C(=O)N1CCCCC1)c1ccc(COC(C)=O)cc1` (stereo not shown) [Compound 16.3, 2-(4-acetoxymethyl)phenyl-1-(piperidin-1-yl)hexanone], in the series on barnacle cyprids (Amphibalanus amphitrite, 24 h, anti-settlement, barnacle cyprids, 24 hours, concentration causing 50% reduction in settlement vs controls, read-out: ED50 (the source's name)), the IC50 was determined as 6.35 µg/mL (≈ 19.2 µM). Besides, in the series with barnacle cyprids (therapeutic ratio, LD50 (nauplii) / ED50 (cyprids)), the “TR (LD50/ED50)” value was over 7.87. The LD50 in series [1] was over 50 µg/mL. Also, the stability on standing result in series [2] was “hydrolyses on standing”.
